Measured values taken from patent publication EP0548931A1, “Material for controlling pests” (SUMITOMO CHEMICAL COMPANY, LIMITED, priority 1991, dated 1993).

Legend:
Thrips palmi = test: Test Example 3: blue cloth material (Production Example 3) in glass vessel with cucumber seedlings, count of adults; format: in vivo; conditions: 0.16 mg/cm², 28° ±1°C
Method: The same procedure as in Production Example 2 is repeated except that a blue cloth replaces the yellow cloth, to obtain a material for controlling pests containing 0.16 mg/cm² of the active ingredient.
Soil was placed on the bottom of a glass vessel of 70 cm x 35 cm x 35 cm in size. Three cucumber seedlings, on which Thrips palmi had been parasitized, were planted at the central part of the glass vessel. After three days, a material for controlling pests with pyriproxyfen as insect growth regulator prepared according to Production Example 3 was formed into a size of 15 cm x 15 cm and set at a height of 5 cm above the ground. On the other hand, the same test was carried out using a blue cloth containing no insect growth regulator as a control.
On the predetermined day, the number of Thrips palmi adults parasitized on the cucumbers was counted. The tests were carried out in a room kept at 28° ±1°C.

sweetpotato whitefly [1] = test: Test Example 6: spray-coated yellow Kent paper (Production Example 5) in net cage, hatching inhibition; format: in vivo, Bemisia tabaci; conditions: yellow Kent paper 15 cm x 15 cm, 1 g/m², spray-coated from acetone; eggs laid on kidney bean
Method: One part of the insect growth regulator is dissolved in 99 parts of acetone. One hundred grams of the resulting solution is spray-coated onto a square yellow Kent paper having a side of 100 cm to obtain a material for controlling pests containing 1 g/m² of the active ingredient. A material for controlling pests with pyriproxyfen as insect growth regulator prepared according to Production Example 5 was formed into a size of 15 cm x 15 cm. It was set on one wall surface of a nylon net cage of 30 cm x 30 cm x 30 cm in size. About 100 adults of sweetpotato whitefly were released in the cage together with kidney bean on which the adults had been parasitized. One day after release of the adults, a potted kidney bean having no adults parasitized thereon was set in the cage for oviposition. Among the eggs laid on the potted kidney bean until the next day, the number of unhatched eggs was counted.

sweetpotato whitefly [2] = test: Test Example 7: yellow Kent paper (Production Example 6) in net cage, hatching inhibition; format: in vivo, Bemisia tabaci; conditions: yellow Kent paper 15 cm x 15 cm, 5 g/m², cotton seed oil, tetradecane, Span 85; eggs laid on kidney bean
Method: Five parts of the insect growth regulator is dissolved in 65 parts of a vegetable oil, and then 20 parts of a mineral oil and 10 parts of a surface active agent are added thereto and mixed. 2.25 Grams of the resulting solution is absorbed in a square yellow Kent paper having a side of 15 cm to obtain a material for controlling pests containing 5 g/m² of the active ingredient. The material for controlling pests containing pyriproxyfen (insect growth regulator), a cotton seed oil (vegetable oil), tetradecane (mineral oil) and Span 85® (surface active agent produced by ICI Americas Inc.) prepared according to Production Example 6 was formed into a size of 15 cm x 15 cm. It was set on one wall surface of a nylon net cage of 30 cm x 30 cm x 30 cm in size. About 100 adults of sweetpotato whitefly were released in the cage together with kidney bean on which the adults had been parasitized. One day after release of the adults, a potted kidney bean having no adults parasitized thereon was set in the cage for oviposition. Among the eggs laid on the potted kidney bean until the next day, the number of unhatched eggs was counted.

sweetpotato whitefly [3] = test: Test Example 4: yellow cloth with cotton seed oil solution in net cage, hatching inhibitory effect on eggs; format: in vivo, Bemisia tabaci; conditions: after 48 hours, kidney bean
Method: Materials for controlling pests containing pyriproxyfen in amounts of 5.3 mg/cm², 2.7 mg/cm² and 0.5 mg/cm², respectively, were prepared by dissolving the corresponding amounts of pyriproxyfen in a cotton seed oil and coating every solution thus obtained onto a yellow cloth of 15 cm x 15 cm in size to allow the cloth to absorb the solution. Every cloth was set on one wall surface of a nylon net cage (30 cm x 30 cm x 30 cm). Kidney bean planted in a pot was placed at the center of the cage, and sweetpotato whitefly adults were released in the cage. After 48 hours, the hatching inhibitory effect on eggs from the adults was examined.

sweetpotato whiteflies [4] = test: Test Example 2: yellow cloth material (Production Example 2), pest-controlling effect, count of adults; format: in vivo, Bemisia tabaci; conditions: 0.16 mg/cm²
Method: 0.4 Part of the insect growth regulator is dissolved in 40 parts of acetone and further 0.8 part of rape seed oil is added thereto. Thirty-one milliliters of the resulting solution is absorbed in a yellow cloth of 21 cm x 92 cm in size. Acetone is then vaporized to obtain a material for controlling pests containing 0.16 mg/cm² of the active ingredient. A material for controlling pests with pyriproxyfen as insect growth regulator was prepared according to Production Example 2. It was set at the same height as that of a container (80 cm x 112 cm x 45 cm) in which tomato having greenhouse whiteflies parasitized thereon had been planted. On the other hand, a yellow cloth containing no insect growth regulator was set as a control at a distance of about 8 m. On the predetermined day, the number of greenhouse whitefly adults parasitized on the tomato was counted. Table 1 In the same manner as in Test Example 1, the pest-controlling effect on sweetpotato whiteflies was examined.

sweetpotato whiteflies [5] = test: Test Example 11: yellow polyethylene sheet (Production Example 9), pest-controlling effect, count of adults; format: in vivo, Bemisia tabaci
Method: Ninety-eight parts by weight of a polyethylene resin (Sumikathene®; a registered trade mark of Sumitomo Chemical Co., Ltd.), 1 part by weight of pyriproxyfen, a juvenile hormone-like compound, and 1 part by weight of a polyethylene colored master batch for yellow coloration (SPEM 305 produced by Sumika Color Co., pigment content: 12 wt.%) are kneaded with a pressure kneader and then pelletized. The resulting pellet is extruded through an extruder equipped with a T-dies at 160° to 180°C to obtain a sheet-form material for controlling pests of 1 mm in thickness. A sheet-like material for controlling pests prepared according to Production Example 9 was formed into a size of 15 cm x 15 cm. It was set at the same height as that of a container (80 cm x 112 cm x 45 cm) in which tomato having greenhouse whiteflies parasitized thereon had been planted. On the other hand, a yellow film containing no insect growth regulator was set as a control in the same manner as in setting the above material for controlling pests. On the predetermined day, the number of greenhouse whitefly adults parasitized on the tomato was counted. In the same manner as in Test Example 10, the pest-controlling effect on sweetpotato whiteflies was examined.

## CC(COc1ccc(Oc2ccccc2)cc1)Oc1ccccn1 (stereo not drawn) [pyriproxyfen, 4-phenoxyphenyl 2-(2-pyridyloxy)propyl ether]
Thrips palmi; 0 days elapsed after setting, blue cloth 15 cm x 15 cm
  number of Thrips palmi adults parasitized on the cucumbers: 5
Thrips palmi; 7 days elapsed after setting, blue cloth
  number of Thrips palmi adults parasitized on the cucumbers: 5
Thrips palmi; 14 days elapsed after setting, blue cloth
  number of Thrips palmi adults parasitized on the cucumbers: 3
Thrips palmi; 21 days elapsed after setting, blue cloth
  number of Thrips palmi adults parasitized on the cucumbers: 2
Sweetpotato whitefly [1]
  Hatching inhibitory rate (%): 99.0%
Sweetpotato whitefly [2]
  Hatching inhibitory rate (%): 90.6%
Sweetpotato whitefly [3]; Pyriproxyfen 0.5 mg/cm² on yellow cloth
  Hatching inhibitory rate (%): 83.7%
Sweetpotato whitefly [3]; Pyriproxyfen 2.7 mg/cm² on yellow cloth
  Hatching inhibitory rate (%): 98.2%
Sweetpotato whitefly [3]; Pyriproxyfen 5.3 mg/cm² on yellow cloth
  Hatching inhibitory rate (%): 94.6%
Sweetpotato whiteflies [4]; 0 days elapsed after setting
  number of sweetpotato whitefly adults (pest-controlling effect): 53
Sweetpotato whiteflies [4]; 7 days elapsed after setting
  number of sweetpotato whitefly adults (pest-controlling effect): 40
Sweetpotato whiteflies [4]; 14 days elapsed after setting
  number of sweetpotato whitefly adults (pest-controlling effect): 35
Sweetpotato whiteflies [4]; 18 days elapsed after setting
  number of sweetpotato whitefly adults (pest-controlling effect): 20
Sweetpotato whiteflies [4]; 29 days elapsed after setting
  number of sweetpotato whitefly adults (pest-controlling effect): 10
Sweetpotato whiteflies [4]; 35 days elapsed after setting
  number of sweetpotato whitefly adults (pest-controlling effect): 1
Sweetpotato whiteflies [5]; 0 days elapsed after setting
  number of sweetpotato whitefly adults (pest-controlling effect): 70
Sweetpotato whiteflies [5]; 7 days elapsed after setting
  number of sweetpotato whitefly adults (pest-controlling effect): 30
Sweetpotato whiteflies [5]; 14 days elapsed after setting
  number of sweetpotato whitefly adults (pest-controlling effect): 20
Sweetpotato whiteflies [5]; 18 days elapsed after setting
  number of sweetpotato whitefly adults (pest-controlling effect): 18
Sweetpotato whiteflies [5]; 29 days elapsed after setting
  number of sweetpotato whitefly adults (pest-controlling effect): 8
Sweetpotato whiteflies [5]; 35 days elapsed after setting
  number of sweetpotato whitefly adults (pest-controlling effect): 5
